According to paper PMC10132981, “Formate overflow drives toxic folate trapping in MTHFD1 inhibited cancer cells” (Nature Metabolism, 2023):
Read-outs that look alike come from different tables or passages of the source.

How the values were obtained:
Experiment in all cases: cells
[1] = tested on: HCT116; set-up: species or system SW620, SW620 MTHFD2-/-, PA-TU-8988T; Resazurin cell viability dose-response in 384-well plates, fluorescence at 595 nm, logistic fit; conditions: Homo sapiens, HCT-116, 96 h, Figure 1=Extended Data Fig. 2a; C=RPMI+GlutaMAX (10% FBS, 1% P/S); D=Vehicle; 96 h viability, no metabolite rescue (vehicle); read-out: EC50 compound
[2] = tested on: SW620 MTHFD2-/-; set-up: species or system HCT116, PA-TU-8988T; Resazurin cell viability dose-response in 384-well plates, fluorescence at 595 nm, logistic fit; conditions: Homo sapiens, SW-620, 96 h, C=RPMI+GlutaMAX (5% dFBS, 1% P/S), D=Vehicle, 96 h viability, no metabolite rescue (vehicle), read-out: EC50 compound
[3] = tested on: PA-TU-8988T; set-up: species or system SW620, SW620 MTHFD2-/-, HCT116; Resazurin cell viability dose-response in 384-well plates, fluorescence at 595 nm, logistic fit; conditions: Homo sapiens, PaTu 8988t, 96 h, Figure 1=Extended Data Fig. 3e; C=DMEM+GlutaMAX (5% dFBS, 1% P/S); D=Vehicle; 96 h viability, no metabolite rescue (vehicle); read-out: EC50 compound
[4] = tested on: SW620 WT; set-up: species or system SW620 MTHFD2-/-, HCT116, PA-TU-8988T; Resazurin cell viability dose-response in 384-well plates, fluorescence at 595 nm, logistic fit; conditions: Homo sapiens, SW-620, 96 h, D=Vehicle, 96 h viability, no metabolite rescue (vehicle), read-out: EC50 compound
[5] = tested on: SW620; set-up: species or system SW620 MTHFD2-/-, HCT116, PA-TU-8988T; Resazurin cell viability dose-response in 384-well plates, fluorescence at 595 nm, logistic fit; conditions: Homo sapiens, SW-620, 96 h, D=Vehicle, 96 h viability, no metabolite rescue (vehicle), read-out: EC50 compound
[6] = tested on: SW620 MTHFD2 -/-; set-up: species or system HCT116, PA-TU-8988T; Resazurin cell viability dose-response in 384-well plates, fluorescence at 595 nm, logistic fit; conditions: Homo sapiens, SW-620, 96 h, C=RPMI+GlutaMAX (5% dFBS, 1% P/S), D=Vehicle, 96 h viability, no metabolite rescue (vehicle), read-out: EC50 compound
[7] = Figure 1=Extended Data Fig. 3b, C=RPMI+GlutaMAX (5% dFBS, 1% P/S)
[8] = Figure 1=Extended Data Fig. 3c, C=RPMI+GlutaMAX (5% dFBS, 1% P/S)
[9] = C=RPMI+GlutaMAX (5% FBS, 1% P/S)
[10] = Figure 1=Extended Data Fig. 2b, C=RPMI+GlutaMAX (10% FBS, 1% P/S)
[11] = Figure 1=Extended Data Fig. 2c, C=RPMI+GlutaMAX (10% FBS, 1% P/S)

Q: With CN(Cc1cnc2nc(N)nc(N)c2n1)c1ccc(C(=O)N[C@@H](CCC(=O)O)C(=O)O)cc1 [MTX] as the compound, how does the EC50 [1] read?
A: 9.48 nM

Q: What about the EC50 ([2]; Figure 1=6e) of the same compound?
A: 1.21 nM

Q: And the EC50 [3]?
A: 30.8 nM

Q: What about the EC50 ([4]; Figure 1=3j, C=RPMI+GlutaMAX (5% dFBS, 1% P/S)) of the same compound?
A: 6.36 nM

Q: And the EC50 ([4]; Figure 1=6k, C=RPMI+GlutaMAX (5% dFBS, 1% P/S))?
A: 5.99 nM

Q: What about the EC50 [4, 7] of the same compound?
A: 7.33 nM

Q: And the EC50 [4, 8]?
A: 6.52 nM

Q: What about the EC50 ([5]; C=HPLM (5% dFBS, 1% P/S)) of the same compound?
A: 27 nM

Q: And the EC50 [5, 9]?
A: 12.3 nM

Q: And the EC50 ([5]; Figure 1=2e, C=RPMI+GlutaMAX (10% FBS, 1% P/S))?
A: 17 nM

Q: What about the EC50 ([5]; Figure 1=3c, C=RPMI+GlutaMAX (5% dFBS, 1% P/S)) of the same compound?
A: 7.12 nM

Q: What about the EC50 [5, 10] of the same compound?
A: 9.21 nM

Q: And the EC50 [5, 11]?
A: 9.96 nM

Q: What about the EC50 ([5]; Figure 1=Extended Data Fig.5c, C=RPMI+GlutaMAX (5% dFBS, 1% P/S)) of the same compound?
A: 10.6 nM

Q: What about the EC50 ([6]; Figure 1=3n) of the same compound?
A: 1.07 nM

Q: And the EC50 ([6]; Figure 1=Extended Data Fig. 3d)?
A: 5.09 nM

Q: How did the EC50 [1] turn out when O=c1[nH]cc(F)c(=O)[nH]1 [5-FU] was run?
A: 2140 nM

Q: And the EC50 ([5]; Figure 1=2f, C=RPMI+GlutaMAX (10% FBS, 1% P/S))?
A: 5350 nM

Q: What about the EC50 [5, 10] of the same compound?
A: 5170 nM

Q: What about the EC50 [5, 11] of the same compound?
A: 4630 nM

Q: What does the source list for Cc1c(N2CCN(C)[C@@H](C)C2)ccc2c3c(c(=O)oc12)CN(C(=O)c1ccc(NS(C)(=O)=O)c(OC(F)(F)F)c1)CC3 [DS18561882]?
A: EC50 ([2]; Figure 1=6f): 162 nM; EC50 ([4]; Figure 1=3k, C=RPMI+GlutaMAX (5% dFBS, 1% P/S)): 954 nM; EC50 [4, 7]: 772 nM; EC50 [5, 9]: > 10000 nM; EC50 ([5]; Figure 1=1d, C=RPMI+GlutaMAX (10% FBS, 1% P/S)): 491 nM; EC50 ([5]; Figure 1=3d, C=RPMI+GlutaMAX (5% dFBS, 1% P/S)): 954 nM; EC50 ([5]; Figure 1=Extended Data Fig.5d, C=RPMI+GlutaMAX (5% dFBS, 1% P/S)): 320 nM; EC50 ([6]; Figure 1=3o): 551 nM; EC50 ([6]; Figure 1=Extended Data Fig. 3d): 57.4 nM

Q: For Cc1[nH]nc2c1C(c1cc(CO)cc(-c3ccccc3)c1)(C(C)C)C(C#N)=C(N)O2 (stereo not drawn) [SHIN1], which EC50 ([2]; Figure 1=6g) is on record?
A: 2.35 nM

Q: What about the EC50 ([5]; Figure 1=1e, C=RPMI+GlutaMAX (10% FBS, 1% P/S)) of the same compound?
A: 1600 nM

Q: Nc1nc(N)c(CC(=O)Nc2cnc(C(=O)N[C@@H](CCC(=O)O)C(=O)O)c(F)c2)c(=O)[nH]1 [TH9619] was tested. Which EC50 [1] did it give?
A: 52.4 nM

Q: And the EC50 ([2]; Figure 1=6c)?
A: 1.24 nM

Q: And the EC50 [3]?
A: 22.2 nM

Q: What about the EC50 ([4]; Figure 1=6i, C=RPMI+GlutaMAX (5% dFBS, 1% P/S)) of the same compound?
A: 1420 nM

Q: What about the EC50 ([4]; Figure 1=3h, C=RPMI+GlutaMAX (5% dFBS, 1% P/S)) of the same compound?
A: 993 nM

Q: And the EC50 [4, 7]?
A: 562 nM

Q: What about the EC50 [4, 8] of the same compound?
A: 694 nM

Q: What about the EC50 ([4]; Figure 1=Extended Data Fig. 3f, C=RPMI+GlutaMAX (5% dFBS, 1% P/S, 10 uM Hypoxanthine)) of the same compound?
A: 16.9 nM

Q: And the EC50 ([5]; C=HPLM (5% dFBS, 1% P/S))?
A: 11.3 nM

Q: And the EC50 [5, 9]?
A: 24.9 nM

Q: And the EC50 ([5]; Figure 1=1b, C=RPMI+GlutaMAX (10% FBS, 1% P/S))?
A: 20.6 nM

Q: What about the EC50 ([5]; Figure 1=3a, C=RPMI+GlutaMAX (5% dFBS, 1% P/S)) of the same compound?
A: 603 nM

Q: What about the EC50 [5, 10] of the same compound?
A: 27.8 nM

Q: What about the EC50 [5, 11] of the same compound?
A: 21.9 nM

Q: What about the EC50 ([5]; Figure 1=Extended Data Fig. 5j, C=RPMI+GlutaMAX (5% dFBS, 1% P/S)) of the same compound?
A: 258 nM

Q: What about the EC50 ([5]; Figure 1=Extended Data Fig.5a, C=RPMI+GlutaMAX (5% dFBS, 1% P/S)) of the same compound?
A: 572 nM

Q: And the EC50 ([5]; Figure 1=Extended Data Fig.5f, C=RPMI+GlutaMAX (5% dFBS, 1% P/S))?
A: 439 nM

Q: What about the EC50 ([5]; Figure 1=Extended Data Fig.5h, C=RPMI+GlutaMAX (5% dFBS, 1% P/S)) of the same compound?
A: 239 nM

Q: What about the EC50 ([6]; Figure 1=3l) of the same compound?
A: 0.626 nM

Q: And the EC50 ([6]; Figure 1=Extended Data Fig. 3d)?
A: 1.71 nM
